Assay results: patent publication US20130251644A1, “Cyclodextrin-Based Microemulsions, and Dermatological Uses Thereof” (PRECISION DERMATOLOGY, INC., priority 2012, published 2013)

Experiments:
[1] = Solubility/dispersibility of retinol in the Labrasol-HPGCD-water systems and in water; format: physicochemical
Text: Microemulsion preparation: Any two components (examples: Labrasol®-water, HPXCD-water, or Labrasol®-HPXCD) were mixed (in different ratios) in different scintillation vials and then the third component was titrated to each vial until a clear-to-turbid or turbid-to-clear transition occurred (in simple situations). Finally wt % percentages data for each component (Labrasol®, water, and cyclodextrin) were plotted to construct the ternary phase diagram.
Cyclodextrin used: hydroxypropyl-X-cyclodextrin (X=alpha, beta, or gamma).
Any two components (examples: Labrasol®-water, cyclodextrin-water, or Labrasol®-HPBCD) were mixed (in different ratios) in different scintillation vials and then the third component was titrated to each vial until a clear-to-turbid or turbid-to-clear transition occurred (in simple situations). Finally wt % percentages data for each component (Labrosol, water, and cyclodextrin) were plotted to construct the ternary phase diagram.

[2] = cited from earlier work

For `CC1=C(/C=C/C(C)=C/C=C/C(C)=C/CO)C(C)(C)CCC1` [solid retinol, Retinol], the “amount of retinol that can be incorporated into the cyclodextrin-based microemulsions” value ([1]; cyclodextrin-based microemulsion systems) is given as “greater than 1.0 wt %”, the “miscibility in Labrasol®-HPGCD-water microemulsion system” value ([1]; final retinol concentration 1.2%, clear transparent system (vials 8 and 1, FIG. 4(b), 4(c))) is given as “complete miscibility” and the miscibility in water [2] is given as “immiscible in water”.
